From patent US20240239755A1, “SUBSTITUTED PYRIDAZINONES, SALTS OR N-OXIDES THEREOF AND THEIR USE AS HERBICIDALLY ACTIVE SUBSTANCES” (Bayer Aktiengesellschaft, priority 2021, published 2024)

Tests used:
Type in all cases: in vivo
[1] = tested on: Amaranthus retroflexus (AMARE); test: Herbicidal pre-emergence action, 1280 g/ha (Table A11); details: visual grading after ca. 3 weeks vs untreated controls
In short: (§1)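 Pre-emergence soil-surface spray, sandy loam, mono-/dicot double sowings per pot; WP or EC formulations, aqueous, +0.5% additive, 600 L/ha water. Greenhouse, optimum conditions. Visual % damage vs untreated at ca. 3 wk (100% = dead).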

[2] = tested on: Matricaria inodora (MATIN); test: Herbicidal post-emergence action, 1280 g/ha (Table B6); details: visual assessment after ca. 3 weeks vs untreated controls
In short: (§2)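 Read-out is visual herbicidal effect in percent against untreated controls (100% = dead plants, 0% = like controls), scored about 3 weeks after treatment. Plants at the single-leaf stage were sprayed on green parts with aqueous WP or EC preparations containing 0.5% additive, 600 L water/ha.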

[3] = tested on: Lolium rigidum (LOLRI); test: Herbicidal post-emergence action, 1280 g/ha (Table B5); details: visual assessment after ca. 3 weeks vs untreated controls
In short: as §2

[4] = tested on: Matricaria inodora (MATIN); test: Herbicidal pre-emergence action, 1280 g/ha (Table A6); details: visual grading after ca. 3 weeks vs untreated controls
In short: as §1

[5] = tested on: Stellaria media (STEME); test: Herbicidal pre-emergence action, 1280 g/ha (Table A9); details: visual grading after ca. 3 weeks vs untreated controls
In short: as §1

[6] = tested on: Lolium rigidum (LOLRI); test: Herbicidal pre-emergence action, 320 g/ha (Table C2); details: visual grading after ca. 3 weeks vs untreated controls
In short: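 Applied pre-emergence to the surface of soil covering weed seeds sown in sandy loam, as WP or EC formulations in water with 0.5% additive at 600 L/ha. Greenhouse-grown; damage graded visually at ca. 3 weeks as percent of untreated controls (100% = plants died).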

[7] = tested on: Abutilon theophrasti (ABUTH); test: Herbicidal post-emergence action, 320 g/ha, ABUTH; details: visual grading after ca. 3 weeks
In short: (§3)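 Post-emergence spray at single-leaf stage; WP/EC in aqueous suspension/emulsion, 0.5% additive, 600 L water/ha. Greenhouse ~3 wk, visual rating vs untreated: 0% = as control, 100% = plants dead.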

[8] = tested on: Echinochloa crus-galli (ECHCG); test: Herbicidal post-emergence action, 320 g/ha, ECHCG; details: visual grading after ca. 3 weeks
From the text: (§4) Seeds of mono- and dicotyledonous weed plants were sown in plastic pots (double sowings with one species of mono- and one species of dicotyledonous weed plants per pot), in sandy loam, covered with soil and grown under controlled growth conditions. 2 to 3 weeks after sowing, the test plants were sprayed in the single-leaf stage. The compounds according to the invention, formulated in the form of wettable powders (WP) or as emulsifiable concentrates (EC), were sprayed onto the green plant parts as an aqueous suspension or as an emulsion, with the addition of 0.5% of an additive, at an application rate of 600 litres of water per hectare (converted). The test plants were placed in the greenhouse for ca. 3 weeks under optimum growth conditions, and then the effect of the preparations was assessed visually in comparison with untreated controls (herbicidal effect in percent (%): 100% effect=plants have died, 0% effect=as control plants).
Tables D1 to D8 below, show the effects of selected compounds of the general formula (I) according to Table 1 on various harmful plants using an application rate corresponding to 320 g/ha obtained by the experimental procedure mentioned above.

[9] = tested on: Lolium rigidum (LOLRI); test: Herbicidal pre-emergence action, 1280 g/ha (Table A5); details: visual grading after ca. 3 weeks vs untreated controls
In short: as §1

[10] = tested on: Amaranthus retroflexus (AMARE); test: Herbicidal post-emergence action, 1280 g/ha, AMARE; details: visual grading vs untreated controls
In short: (§5)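 Pot-grown weeds in sandy loam sprayed post-emergence at the single-leaf stage, 2–3 weeks after sowing, with WP or EC formulations plus 0.5% additive in 600 L water/ha at 1280 g/ha. After ca. 3 weeks in the greenhouse, damage scored visually as % effect versus untreated controls (100% = plants dead).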

[11] = tested on: Matricaria inodora (MATIN); test: Herbicidal post-emergence action, 320 g/ha, MATIN; details: visual grading after ca. 3 weeks
In short: as §3

[12] = tested on: Stellaria media (STEME); test: Herbicidal post-emergence action, 320 g/ha, STEME; details: visual grading after ca. 3 weeks
In short: as §3

[13] = tested on: Veronica persica (VERPE); test: Herbicidal post-emergence action, 1280 g/ha, VERPE; details: visual grading vs untreated controls
In short: as §5

[14] = tested on: Kochia scoparia (KCHSC); test: Herbicidal post-emergence action, 320 g/ha, KCHSC; details: visual grading after ca. 3 weeks
In short: as §3

[15] = tested on: Kochia scoparia (KCHSC); test: Herbicidal post-emergence action, 1280 g/ha (Table B4); details: visual assessment after ca. 3 weeks vs untreated controls
In short: as §2

[16] = tested on: Amaranthus retroflexus (AMARE); test: Herbicidal post-emergence action, 320 g/ha, AMARE; details: visual grading after ca. 3 weeks
In short: as §3

[17] = tested on: Stellaria media (STEME); test: Herbicidal post-emergence action, 1280 g/ha (Table B9); details: visual assessment after ca. 3 weeks vs untreated controls
In short: as §2

[18] = tested on: Echinochloa crus-galli (ECHCG); test: Herbicidal post-emergence action, 1280 g/ha (Table B3); details: visual assessment after ca. 3 weeks vs untreated controls
In short: as §2

[19] = tested on: Abutilon theophrasti (ABUTH); test: Herbicidal post-emergence action, 1280 g/ha (Table B1); details: visual assessment after ca. 3 weeks vs untreated controls
In short: as §2

[20] = tested on: Lolium rigidum (LOLRI); test: Herbicidal post-emergence action, 320 g/ha, LOLRI; details: visual grading after ca. 3 weeks
In short: as §3

[21] = tested on: Poa annua (POAAN); test: Herbicidal post-emergence action, 1280 g/ha (Table B7); details: visual assessment after ca. 3 weeks vs untreated controls
From the text: as §4, with “plants). Tables B1 to B11 below, show the effects of selected compounds of the general formula (I) according to Table 1 on various harmful plants using an application rate corresponding to 1280 g/ha obtained by the experimental procedure mentioned above.” for “plants).”

[22] = tested on: Poa annua (POAAN); test: Herbicidal pre-emergence action, 1280 g/ha (Table A7); details: visual grading after ca. 3 weeks vs untreated controls
In short: as §1

[23] = tested on: Veronica persica (VERPE); test: Herbicidal post-emergence action, 320 g/ha, VERPE; details: visual grading after ca. 3 weeks
In short: as §3

[24] = tested on: Poa annua (POAAN); test: Herbicidal pre-emergence action, 320 g/ha, POAAN; details: visual grading after ca. 3 weeks
From the text: (§6) Seeds of mono- and dicotyledonous weed plants were sown in plastic pots (double sowings with one species of mono- and one species of dicotyledonous weed plants per pot), in sandy loam, and covered with soil. The compounds according to the invention, formulated in the form of wettable powders (WP) or as emulsifiable concentrates (EC), were applied to the surface of the covering soil as an aqueous suspension or as an emulsion, with the addition of 0.5% of an additive, at an application rate of 600 litres of water per hectare (converted). Following treatment, the pots were placed in a greenhouse and kept under optimum growth conditions for the test plants. The visual grading of the damage to the test plants was carried out after ca. 3 weeks in comparison to untreated controls (herbicidal effect in percent (%): 100% effect=plants have died, 0% effect=as control plants).
Tables C1 to C6 below, show the effects of selected compounds of the general formula (I) according to Table 1 on various harmful plants using an application rate corresponding to 320 g/ha obtained by the experimental procedure mentioned above.

[25] = tested on: Alopecurus myosuroides (ALOMY); test: Herbicidal pre-emergence action, 1280 g/ha (Table A2); details: visual grading after ca. 3 weeks vs untreated controls
From the text: as §6, with “plants). Tables A1 to A11 below, show the effects of selected compounds of the general formula (I) according to Table 1 on various harmful plants and an application rate corresponding to 1280 g/ha obtained by the experimental procedure mentioned above.” for “plants).”

[26] = tested on: Setaria viridis (SETVI); test: Herbicidal post-emergence action, 1280 g/ha (Table B8); details: visual assessment after ca. 3 weeks vs untreated controls
In short: as §2

[27] = tested on: Digitaria sanguinalis (DIGSA); test: Herbicidal pre-emergence action, 1280 g/ha (Table A3); details: visual grading after ca. 3 weeks vs untreated controls
From the text: as §6, with “plants). Tables A1 to A11 below, show the effects of selected compounds of the general formula (I) according to Table 1 on various harmful plants and an application rate corresponding to 1280 g/ha obtained by the experimental procedure mentioned above.” for “plants).”

[28] = tested on: Kochia scoparia (KCHSC); test: Herbicidal pre-emergence action, 1280 g/ha (Table A4); details: visual grading after ca. 3 weeks vs untreated controls
In short: as §1

| SMILES | herbicidal effect AMARE [1] [%] | herbicidal effect MATIN [2] [%] | herbicidal effect LOLRI [3] [%] | herbicidal effect MATIN [4] [%] | herbicidal effect STEME [5] [%] | herbicidal effect ABUTH [7] [%] | herbicidal effect ECHCG [8] [%] | herbicidal effect LOLRI [9] [%] | herbicidal effect AMARE [10] [%] | herbicidal effect MATIN [11] [%] | herbicidal effect STEME [12] [%] | herbicidal effect VERPE [13] [%] | herbicidal effect KCHSC [14] [%] | herbicidal effect KCHSC [15] [%] | herbicidal effect AMARE [16] [%] | herbicidal effect STEME [17] [%] | herbicidal effect ECHCG [18] [%] | herbicidal effect ABUTH [19] [%] | herbicidal effect POAAN [22] [%] | further results |
| --- | --- | --- | --- | --- | --- | --- | --- | --- | --- | --- | --- | --- | --- | --- | --- | --- | --- | --- | --- | --- |
| Cc1nn(C)c(=O)c(Oc2cc(Cl)ccc2Cl)c1O [Example I-016] | 90 | 90 | 90 | 100 | 100 | 100 | 90 | 100 | 100 | 90 | 100 | 90 | 90 | 100 | 100 | 100 | 90 | 100 | – | herbicidal effect LOLRI [6]: 90%; herbicidal effect LOLRI [20]: 90% |
| CCOC(=O)Oc1c(C)nn(C)c(=O)c1Oc1ccccc1Cl [Example I-010] | 90 | 100 | 100 | 100 | 90 | 90 | – | 100 | 100 | 100 | 100 | 90 | 100 | 100 | 100 | 100 | 90 | 100 | 90 | herbicidal effect POAAN [21]: 100%; herbicidal effect VERPE [23]: 90% |
| Cc1nn(C)c(=O)c(Oc2ccccc2OC(F)(F)F)c1O [Example I-008] | – | – | – | – | – | – | – | – | – | – | – | – | – | – | – | – | – | – | 100 | herbicidal effect POAAN [24]: 100%; herbicidal effect ALOMY [25]: 100% |
| Cc1nn(C)c(=O)c(Oc2ccc(Cl)cc2Cl)c1OC(=O)C1CCC1 [Example I-064] | – | 100 | – | – | – | – | 100 | – | 100 | 90 | 90 | 90 | 100 | 100 | 100 | 100 | 100 | – | – | herbicidal effect SETVI [26]: 90% |
| Cc1nn(C)c(=O)c(Oc2cc(Cl)c(Cl)c(Cl)c2)c1O [Example I-077] | 100 | – | – | 100 | – | – | – | – | – | – | 90 | – | – | – | – | 100 | 90 | – | 100 | herbicidal effect DIGSA [27]: 100%; herbicidal effect KCHSC [28]: 90% |
